ChEMBL document CHEMBL5604062, “ASAP - ZIKV NS2B-NS3 protease fluorescence dose response” (2024)
Several values for one entry are separate records, joined by “and”; a condition that tells them apart may be missing. Identical values can stand only once.

These compounds were tested against Nonstructural protein 3 (Zika virus, UniProt A0A024AXB9) (assay: Functional biochemical assay to identify treatments for viral infectious disease that targets Zika NS2B-NS3 protease. Utilizing a direct enzyme activity measurement method, reading the fluorescence intensity is used to characterize the relative potency of inhibitors as IC50.).
Set-up: species or system PRVABC59

Nonstructural protein 3, sequence (A0A024AXB9 whole entry): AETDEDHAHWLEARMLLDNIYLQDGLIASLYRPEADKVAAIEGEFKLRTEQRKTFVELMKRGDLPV

SMILES	IC50
O=C(Nc1ccc2c(c1)C[C@H](O)C2)c1cc(Cl)cc2[nH]ncc12	> 99.5 µM
O=C1OCc2ccc(NC(=O)[C@H]3CNC4(CCCC4)C3)cc21	> 25 µM
Cc1c(C(=O)Nc2cc(-c3ccccc3)ccn2)cc(C2CC2)n1C	> 25 µM
CC(C)(C)OC(=O)NCc1cccc(NC(=O)c2cc(N)cc(Cl)c2)c1	> 99.5 µM
O=C(Nc1ccc2c(c1)CNC2)c1cc(Cl)ccc1-n1cnnn1	1.05 µM
Cc1ccccc1-c1nc2c(C(=O)Nc3ccc4c(c3)CNC4)cc(F)cc2[nH]1	31 nM (2×) and 18 nM
Cc1c(C(=O)Nc2ccc(CCN)cc2)cc(C2CC2)n1C	92.6 µM
COc1nc(Cl)c(CSc2nc(C)co2)s1	> 99.5 µM
CC1=CC[C@H](c2cccc(-c3nn[nH]n3)c2)Nc2cc(Cl)ccc21	> 25 µM
NCc1cccc(NC(=O)[C@@H]2C[C@@H]3CC[C@H]2N3C(=O)OCc2ccccc2)c1	> 99.5 µM
O=C(Nc1cc(Cl)cc(C(=O)N2CCC[C@H]2C(=O)O)c1)OCc1ccccc1	> 99.5 µM
NCc1cccc(NC(=O)[C@H]2[C@H]3CCC[C@H]3[C@@H]2NC(=O)OCc2ccccc2)c1	> 99.5 µM
N#CC[C@H](N)c1cccc(NC(=O)c2cc(Cl)cc(NC(=O)OCc3ccccc3)c2)c1	> 99.5 µM
Cc1c(NC(=O)c2cccc3c2CC(=O)N3)cnn1C1CCOCC1	> 25 µM
Cc1cccc([C@@H](NC(=O)OCc2ccccc2)C(=O)Nc2cccc(CN)c2)n1	> 99.5 µM
Clc1cc(CNc2ccc3c(c2)CNC3)c2cn[nH]c2c1	3.28 µM
NCc1cccc(NC(=O)[C@@H]2[C@@H]3CCCCC[C@@H]3[C@@H]2NC(=O)OCc2ccccc2)c1	54.7 µM
CCc1c(C(=O)Nc2cccc(CN)c2)c2cc(Cl)ccc2n1C	> 99.5 µM
O=C1Cc2c(cccc2C(=O)N[C@H]2CCc3ncsc3C2)N1	> 25 µM
O=C(Nc1ccc2c(c1)CNC2)c1cc(C(F)(F)F)nc2[nH]ccc12	7.32 µM
O=C(N[C@@H](C(=O)NCc1cnccn1)c1ccc(OCc2ccccc2)cc1)OCc1ccccc1	> 99.5 µM
Cc1c(C(=O)NCc2cccc(C3COC3)c2)cc(C2CC2)n1C	> 25 µM
O=C(Nc1ccc2c(c1)CNC2)c1ccc2c(c1)C1(CC1)C(=O)N2	1.77 µM

SMILES	IC50
CNC(=O)[C@]1(Nc2ccc3c(c2)CNC3)CCc2ccc(Cl)cc21	34.6 µM
NCc1cccc(-c2csc3cc(C(=O)Nc4ccc5c(c4)CNC5)ccc23)c1	1.71 µM and 1.41 µM
N[C@H]1CCc2ccc(NC(=O)c3cc(Cl)cc4[nH]ncc34)cc21	1.49 µM
CCn1cc(-c2ccc3nn(C)cc3c2)nc(N2CC[C@@H](CO)C2)c1=O	> 99.5 µM
CC(C)Cn1cccc(C(=O)Nc2ccnc3ccccc23)c1=O	> 99.5 µM
NCc1cccc(NC(=O)c2cc(Cl)cc(N3CCCC3)c2)c1	12 µM
c1ccc2nc(SCc3cn4ccccc4n3)cnc2c1	> 99.5 µM
O=C(c1cc(Cl)ccc1NS(=O)(=O)c1ccc(Oc2ccccc2Cl)cc1)N1CCC[C@@H]1CO	> 99.5 µM
C=CC[C@H](Nc1cccc(-c2nn[nH]n2)c1)c1cc(Cl)cc(NC(=O)OCc2ccccc2)c1	9.32 µM
Cc1c(C(=O)Nc2cc(C(=O)N3CC[C@H](O)C3)ccn2)cc(C2CC2)n1C	> 25 µM
Cc1ccc(S(=O)(=O)CNC(=O)[C@H](Nc2ccc3c(c2)CNC3)c2cc(Cl)cc3[nH]ncc23)cc1	0.749 µM
N=C(N)NCCc1ccccc1B(O)O	> 100 µM
N[C@H]1CC[C@H](NC(=O)[C@@H](NC(=O)OCc2ccccc2)c2ccc(OCc3ccccc3)cc2)C1	> 99.5 µM
NCc1cccc(NC(=O)c2ccc(=O)n(Cc3ccccc3Cl)c2)c1	> 99.5 µM
Cc1c(C(=O)Nc2cc(C(N)=O)c3ccccc3n2)cc(C2CC2)n1C	> 99.5 µM
Cc1c[nH]nc1CN1CCC(c2cscn2)CC1	> 99.5 µM
Cc1nc([C@H]2CCCNC2)[nH]c1C(=O)Nc1ccccn1	> 99.5 µM
N=C(N)NCc1ccc(OC(=O)Nc2ccccc2)cc1	> 100 µM
NCc1ccc(NC(=O)c2cc(Cl)cc3[nH]ncc23)cc1F	4.94 µM
C[C@]1(O)C(=O)Nc2cc(F)cc(C(=O)Nc3ccc4c(c3)CNC4)c21	0.171 µM
NCc1cccc(NC(=O)[C@H](NC(=O)OCc2ccccc2)c2cccc(OC[C@H]3COCCO3)c2)c1	> 99.5 µM
CCn1c(=O)c(N2CC[C@H](c3cnccn3)C2)nc2ccccc21	> 99.5 µM

Further lines, results first:

IC50	SMILES
> 25 µM	Cc1c(C(=O)Nc2ccc3c(c2)CCS3(=O)=O)cc(C2CC2)n1C
> 99.5 µM	CN(C)[C@H]1CCc2cc(-c3cccc(N4CCNC4=O)c3)ccc2NC1
43.2 µM	Cc1ccc(OCc2ccccc2Cl)c(C(=O)Nc2cccc(CN)c2)c1
> 99.5 µM	O=C(O)c1cc(Cl)cc(Cl)c1S(=O)(=O)Nc1ccc(Oc2ccccc2Cl)cc1
> 25 µM	Cc1cc(=O)[nH]c(-c2cccc(NC(=O)c3cc(C4CC4)n(C)c3C)c2)n1
> 99.5 µM	NCc1cc(S(=O)(=O)Nc2ccc(Cl)cc2C(=O)NCC(F)(F)F)ccc1Oc1ccccc1
> 25 µM	CNC(=O)[C@H](Nc1ccc2c(c1)C(=O)OC2)c1cc(Cl)cc2[nH]ncc12
0.21 µM	O=C(Nc1ccc2c(c1)CNC2)c1cc(Cl)cc2[nH]c(COc3ccccn3)nc12
> 99.5 µM	O=C(O)c1cc(Cl)ccc1NS(=O)(=O)c1ccc(OCc2ccccn2)cc1
> 99.5 µM	Cc1cc(-c2ccc3[nH]c(C(=O)O)cc3c2)c(=O)n(Cc2ccccc2)c1
6.43 µM	O=C1NCc2c1cccc2C(=O)Nc1ccc2c(c1)CNC2
13.3 µM	Cn1cc(-c2cc(CN)cc([C@@H]3C[C@H]3c3cc(Cl)cc(NC(=O)OCc4ccccc4)c3)c2)cn1
> 25 µM	Cc1c(C(=O)Nc2cc(C(=O)N3CCC[C@H]3C(N)=O)ccn2)cc(C2CC2)n1C
2.77 µM	O=C(Nc1ccc2c(c1)CNC2)c1cc(Cl)ccc1OCC(F)(F)F
> 25 µM	c1cc([C@@H]2C[C@H]2c2ccc3c(c2)CNC3)c2cn[nH]c2c1
33.1 µM	CCOCCCN1Cc2ccc(NC(=O)c3cc(Cl)cc4[nH]ncc34)cc2C1
> 99.5 µM	c1ccc2c(CN3CC(c4cscn4)C3)c[nH]c2c1
> 99.5 µM	CCn1c(=O)c(N2CC3(CCC3)C[C@@H]2C)nc2ccccc21
> 99.5 µM	Cc1ccc(NC(=O)c2cc(Cl)cc3[nH]ncc23)cc1N
13.1 µM	COCCCN1Cc2ccc(NC(=O)c3cc(Cl)cc4[nH]ncc34)cc2C1

IC50	SMILES
22.4 µM	c1ccc(-c2csc(C3CCN(Cc4c[nH]c5ccccc45)CC3)n2)cc1
> 99.5 µM	Cc1cc(C)c(C(=O)N2C[C@H]3CN(C)CC[C@@]3(CO)C2)cc1C=O
7.58 µM	O=C(Nc1ccc2c(c1)CNC2)c1cc(O)nc(C2CC2)c1
33.6 µM	C[C@@H](N)c1cccc(NC(=O)[C@@H](NC(=O)OCc2ccccc2)c2ccc(OCc3ccccc3)cc2)c1
> 99.5 µM	C[C@]1(C(=O)N[C@H](C(=O)Nc2cccc(CN)c2)c2ccc(OCc3ccccc3)cc2)CCCO1
> 99.5 µM	O=C(N[C@@H](C(=O)NCc1cn[nH]c1)c1ccc(OCc2ccccc2)cc1)OCc1ccccc1
69.8 µM	O=C1COc2c(cccc2N2CCN(Cc3c[nH]c4ccccc34)CC2)N1
> 99.5 µM	CCn1cc(-c2cnc3ccnn3c2)nc(N2CC[C@@H](CO)C2)c1=O
> 99.5 µM	C[C@H]1CCCCN1C(=O)Cn1ccnc(N2CC[C@@H](CO)C2)c1=O
> 25 µM	Cc1c(C(=O)Nc2ccnc(O[C@H]3CCOC3)c2)cc(C2CC2)n1C
> 99.9 µM	CC(=O)Nc1cccc(CNC(=O)C2CCN(c3ccc(C=O)cc3)CC2)c1
> 99.5 µM	COC(=O)c1cc(Br)cc2c(Cc3ccc(-c4nnn[nH]4)cc3)c[nH]c12
> 99.5 µM	CNc1cc(COc2cccnc2F)nc(N2CCNCC2)n1
> 99.5 µM	CN1CCc2c(cccc2NC(=O)c2cc(Cl)cc(NC(=O)OCc3ccccc3)c2)C1
> 99.5 µM	CC(C)c1cc(S(=O)(=O)N[C@H](C(=O)Nc2cccc(CN)c2)c2ccc(OCc3ccccc3)cc2)on1
> 99.5 µM	O=C(O)c1cc(Cl)ccc1S(=O)(=O)N[C@H]1CCN(Cc2ccccc2)C2(CC2)C1
> 99.5 µM	O=C(O)CCCn1cnc(-c2cc(Cl)cc(NC(=O)OCc3ccccc3)c2)n1
> 99.5 µM	CCn1ccnc(N2CC[C@@H](CO)C2)c1=O
0.243 µM	O=C(Nc1ccc2c(c1)CNC2)c1cccc2c1[C@]1(CCN(C(=O)OCc3ccccc3)C1)C(=O)N2
> 99.5 µM	CCn1c(=O)c(N2CC[C@@H](CN3CCCCC3)C2)nc2ccccc21

IC50	SMILES
> 25 µM	O=C(Nc1cc([C@H]2CCOC2)ccn1)c1cc(F)cc2[nH]ncc12
> 99.5 µM	NCc1cccc(NC(=O)[C@@H]2CCC[C@@H](NC(=O)OCc3ccccc3)C2)c1
> 99.5 µM	CCc1onc(-c2ccc(Br)cc2)c1C(=O)Nc1cccc(CN)c1
> 25 µM	CCO[C@@H]1CC[C@H]1NC(=O)c1cccc2c1CC(=O)N2
> 25 µM	C[C@](N)(C(=O)Nc1ccc2c(c1)C(=O)OC2)c1cccs1
< 50 nM (2×) and 139 nM and 164 nM	O=C(Nc1ccc2c(c1)CNC2)c1cc(Cl)cc2[nH]ncc12
48.5 µM	NCc1cccc(NC(=O)c2cncc(Cl)c2)c1
1.19 µM	Cc1[nH]c2c(C(=O)Nc3ccc4c(c3)CNC4)cccc2c1C
13.7 µM	C[C@H](N)c1cccc(NC(=O)c2cc(Cl)cc(NC(=O)OCc3ccccc3)c2)c1
> 99.5 µM	Nc1ccc(/C=C/C(=O)C(=O)N2CCN(CCc3ccccc3)CC2)cc1
> 99.5 µM	NCc1cccc(NC(=O)C[C@@H]2[C@H]3CC[C@H](C3)N2C(=O)OCc2ccccc2)c1
1.13 µM	Cn1cc2c(C(=O)Nc3ccc4c(c3)CNC4)cccc2n1
> 99.5 µM	CCn1nccc1-c1cn(CC)c(=O)c(N2CC[C@@H](CO)C2)n1
24.6 µM	O=C(Nc1ccc2c(c1)CNC2)N1C[C@H](C(F)F)C2(CC2)C1
> 99.5 µM	NCc1cccc(NC(=O)c2cc(Cl)cc(Cl)c2OCc2ccccc2)c1
> 99.5 µM	Cc1ccc(S(=O)(=O)N2CCC(NS(=O)(=O)c3ccc(Cl)cc3C(=O)O)CC2)cc1
> 99.5 µM	N#C[C@H](Nc1cccc(C(=O)O)c1)c1cc(Cl)cc2[nH]ncc12
> 99.5 µM	COc1ccc(CNC(=O)[C@@H](NC(=O)OCc2ccccc2)c2ccc(OCc3ccccc3)cc2)cn1
> 99.5 µM	O=C(c1cc(Cl)cc2[nH]ncc12)N1CCC[C@H]1C1CCNCC1
> 99.5 µM	Cn1cc(-c2ccc([C@@H](NC(=O)OCc3ccccc3)C(=O)Nc3cccc(CN)c3)cc2)ccc1=O
